Experimental data from patent US12427187B2, “Glucose-responsive insulin conjugates” (priority 2019, dated 2025).
Like-named read-outs stand apart in the source and are kept apart here.

Tests used:
[1] = biological target: human IR(B) (Homo sapiens, UniProt P06213); test: Insulin receptor phosphorylation assay (MSD pIR); assay type: cell-based; conditions: CHO cells expressing human IR(B), IP = inflection point, read-out: IR Activation IP
Experimental: CHO cells stably expressing human IR(B) were in grown in F12 cell media containing 10% FBS and antibiotics (G418, Penicillin/Strepavidin) for at least 8 hr, and then serum starved by switching to F12 media containing 0.5% BSA (insulin-free) in place of FBS for overnight growth. Cells were harvested and frozen in aliquots for use in the MSD pIR assay. Briefly, the frozen cells were plated in either 96-well (40,000 cells/well, Methods A) or 384-well (10,000 cells/well, Method B) clear tissue culture plates and allowed to recover. IOC molecules at the appropriate concentrations were added and the cells incubated for 8 min at 37° C. The media was aspirated and chilled MSD cell lysis buffer was added as per MSD kit instructions. The cells were lysed on ice for 40 min and the lysate then mixed for 10 min at rt. The lysate was transferred to the MSD kit pIR detection plates. The remainder of the assay was carried out following the MSD kit recommended protocol.
The in vitro biological activities towards insulin receptor (IR) were measured by either ligand competition assays or functional phosphorylation assays, as described above, labeled as following: Method A: IR phosphorylation assay based on 96-well; Method B: IR phosphorylation assay based on 384-well with automated liquid dispense; Method C: cell-based IR binding assay; Method D: SPA IR binding assay method E; Method E: MRC1 assay was performed in a 96-well plate; Method F: MRC1 assay was performed in a 384-well plate.

[2] = biological target: human insulin receptor type B (IR(B)) (Homo sapiens, UniProt P06213); test: IR binding assay, scintillation proximity assay on cell membranes (Method D); conditions: Method D: SPA IR binding assay; IP = inflection point
Experimental: Method D: IR binding assay was run in a scintillation proximity assay (SPA) in 384-well format using cell membranes prepared from CHO cells overexpressing human IR(B) grown in F12 media containing 10% FBS and antibiotics (G418, Penicillin/Strepavidin). Cell membranes were prepared in 50 mM Tris buffer, pH 7.8 containing 5 mM MgCl2. The assay buffer contained 50 mM Tris buffer, pH 7.5, 150 mM NaCl, 1 mM CaCl2, 5mgCl2, 0.1% BSA and protease inhibitors (Complete-Mini-Roche). Cell membranes were added to WGA PVT PEI SPA beads (5 mg/mL final concentration) followed by addition of IOC molecules at appropriate concentrations.

[3] = biological target: T1, Human macrophage mannose receptor 1 (MRC1) (Homo sapiens, UniProt P22897); test: MRC1 competition binding assay with Eu-mannosylated-BSA; conditions: IP = inflection point, read-out: MRC1 Binding IP
T1 sequence (P22897 19-1456): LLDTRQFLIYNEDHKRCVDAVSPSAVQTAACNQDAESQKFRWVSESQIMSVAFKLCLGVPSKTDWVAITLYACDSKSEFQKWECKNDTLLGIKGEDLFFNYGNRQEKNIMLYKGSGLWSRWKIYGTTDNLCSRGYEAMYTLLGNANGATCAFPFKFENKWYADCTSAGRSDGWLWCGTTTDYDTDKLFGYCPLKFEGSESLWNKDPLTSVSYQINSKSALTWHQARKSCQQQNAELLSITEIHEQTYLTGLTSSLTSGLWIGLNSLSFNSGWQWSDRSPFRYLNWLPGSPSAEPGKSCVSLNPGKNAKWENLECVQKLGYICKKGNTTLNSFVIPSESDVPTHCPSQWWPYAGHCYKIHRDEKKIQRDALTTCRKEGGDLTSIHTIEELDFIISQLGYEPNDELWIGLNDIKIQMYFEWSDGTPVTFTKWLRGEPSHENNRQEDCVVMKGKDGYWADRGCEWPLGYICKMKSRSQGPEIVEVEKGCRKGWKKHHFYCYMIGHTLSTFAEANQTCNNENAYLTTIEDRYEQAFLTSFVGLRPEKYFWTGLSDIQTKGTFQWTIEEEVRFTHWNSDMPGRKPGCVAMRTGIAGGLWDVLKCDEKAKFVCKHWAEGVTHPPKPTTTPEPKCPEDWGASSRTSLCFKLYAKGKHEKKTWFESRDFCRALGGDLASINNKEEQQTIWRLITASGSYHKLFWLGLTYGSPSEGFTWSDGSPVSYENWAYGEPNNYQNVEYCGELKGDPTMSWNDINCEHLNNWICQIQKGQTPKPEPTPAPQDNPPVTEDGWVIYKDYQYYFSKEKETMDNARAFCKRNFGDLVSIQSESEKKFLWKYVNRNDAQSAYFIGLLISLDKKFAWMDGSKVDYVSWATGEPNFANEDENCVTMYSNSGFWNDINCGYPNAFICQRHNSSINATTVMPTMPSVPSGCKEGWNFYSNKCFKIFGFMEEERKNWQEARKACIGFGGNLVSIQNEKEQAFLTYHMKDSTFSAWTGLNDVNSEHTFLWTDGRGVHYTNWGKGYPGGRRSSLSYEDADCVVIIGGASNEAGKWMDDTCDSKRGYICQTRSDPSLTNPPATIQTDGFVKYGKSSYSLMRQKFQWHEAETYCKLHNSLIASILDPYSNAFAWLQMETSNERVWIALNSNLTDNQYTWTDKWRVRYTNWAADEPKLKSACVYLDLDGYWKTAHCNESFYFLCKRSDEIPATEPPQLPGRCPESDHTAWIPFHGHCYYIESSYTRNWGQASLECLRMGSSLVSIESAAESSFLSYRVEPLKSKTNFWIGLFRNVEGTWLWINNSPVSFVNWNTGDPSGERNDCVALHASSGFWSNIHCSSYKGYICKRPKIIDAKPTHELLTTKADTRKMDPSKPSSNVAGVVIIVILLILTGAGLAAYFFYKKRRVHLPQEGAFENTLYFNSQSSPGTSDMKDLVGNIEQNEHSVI
Experimental: The competition binding assay for Human macrophage mannose receptor 1 (MRC1) utilized a ligand, mannosylated-BSA labeled with the DELFIA Eu-N1-ITC reagent, as reported in the literature. Assay was performed either in a 96-well plate with 100 μL well volume (Method E) or in a 384-well plate with 25 μL well volume (Method F). […] The antibody was incubated in the plate for 1 hr at rt with shaking. The plate was washed with wash buffer 3-5 times followed by addition of MRC1 (2 ng/μl final concentration) in PBS containing 1% stabilizer BSA. The plate was incubated at rt with gentle shaking for 1 hr. The plate was washed three times with wash buffer. The IOC molecules in 12.5 μL (or 50 μL depending on plate format) buffer at appropriate concentrations were added followed by 12.5 μL (or 50 μL) Eu-mannosylated-BSA (0.1 nm final concentration) in 50 mM Tris, pH 7.5 containing 100 mM NaCl, 5 mM CaCl2, 1 mM MgCl2 and 0.2% stabilizer BSA. The plate was incubated for 2 hrs at rt with shaking followed by washing three times with wash buffer.

[4] = Method B: IR phosphorylation assay, 384-well with automated liquid dispense

Sequence of human IR(B) (P06213 28-758 limits assumed): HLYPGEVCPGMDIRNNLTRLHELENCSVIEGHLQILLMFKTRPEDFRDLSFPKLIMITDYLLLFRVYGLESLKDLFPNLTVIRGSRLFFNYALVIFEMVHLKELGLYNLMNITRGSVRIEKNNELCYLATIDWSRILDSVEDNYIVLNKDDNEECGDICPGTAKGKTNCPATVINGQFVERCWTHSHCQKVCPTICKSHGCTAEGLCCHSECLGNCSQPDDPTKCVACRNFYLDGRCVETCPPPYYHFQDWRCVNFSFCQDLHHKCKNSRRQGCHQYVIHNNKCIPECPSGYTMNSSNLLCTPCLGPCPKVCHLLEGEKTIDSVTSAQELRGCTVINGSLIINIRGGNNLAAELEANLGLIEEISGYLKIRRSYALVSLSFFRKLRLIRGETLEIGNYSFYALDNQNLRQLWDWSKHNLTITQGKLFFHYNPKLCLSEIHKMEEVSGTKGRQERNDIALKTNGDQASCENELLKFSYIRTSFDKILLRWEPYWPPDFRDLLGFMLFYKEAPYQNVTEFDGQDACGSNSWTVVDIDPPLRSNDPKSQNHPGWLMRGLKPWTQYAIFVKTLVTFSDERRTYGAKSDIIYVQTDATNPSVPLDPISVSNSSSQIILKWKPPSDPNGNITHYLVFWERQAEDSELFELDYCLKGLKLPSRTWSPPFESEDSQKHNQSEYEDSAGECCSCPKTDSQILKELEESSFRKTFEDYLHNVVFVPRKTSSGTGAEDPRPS
Sequence of human IR(B) (P06213 763-1382 partner limits assumed): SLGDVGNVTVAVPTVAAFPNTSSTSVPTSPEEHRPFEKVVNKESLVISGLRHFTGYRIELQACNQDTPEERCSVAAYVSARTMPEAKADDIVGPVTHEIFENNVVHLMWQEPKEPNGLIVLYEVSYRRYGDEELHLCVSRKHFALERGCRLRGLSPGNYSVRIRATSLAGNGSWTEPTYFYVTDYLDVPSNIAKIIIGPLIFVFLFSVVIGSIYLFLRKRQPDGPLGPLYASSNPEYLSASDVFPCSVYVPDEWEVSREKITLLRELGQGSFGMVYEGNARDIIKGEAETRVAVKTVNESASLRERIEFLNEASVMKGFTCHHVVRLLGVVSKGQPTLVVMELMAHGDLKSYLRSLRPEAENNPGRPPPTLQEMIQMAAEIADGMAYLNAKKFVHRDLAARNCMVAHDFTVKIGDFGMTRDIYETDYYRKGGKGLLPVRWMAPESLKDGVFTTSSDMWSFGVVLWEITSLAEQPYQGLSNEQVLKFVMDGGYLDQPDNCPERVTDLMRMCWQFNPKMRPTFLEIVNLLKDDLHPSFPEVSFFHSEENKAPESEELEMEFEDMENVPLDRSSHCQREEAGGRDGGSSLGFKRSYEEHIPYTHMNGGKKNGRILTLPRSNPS
Sequence of human insulin receptor type B (IR(B)) (P06213 28-758 limits assumed): as the sequence (P06213 28-758 limits assumed) above
Sequence of human insulin receptor type B (IR(B)) (P06213 763-1382 partner limits assumed): as the sequence (P06213 763-1382 partner limits assumed) above

Compound	EC50 [1, 4] [nM]	IC50 [2] [nM]	IC50 ([3]; Method F: 384-well plate) [nM]	EC50 ([1]; Method A: IR phosphorylation assay, 96-well) [nM]	IC50 ([3]; Method E: 96-well plate) [nM]
CC(=O)[C@H](CCCCN)NC(=O)CCCCCNC(=O)[C@H](CCCCNC(=O)CCCCCNC(=O)CN(CC(=O)NCCO[C@H]1O[C@H](CO[C@H]2O[C@H](CO)[C@@H](O)[C@H](O)[C@@H]2O)[C@@H](O)[C@H](O[C@H]2O[C@H](CO)[C@@H](O)[C@H](O)[C@@H]2O)[C@@H]1O)CC(=O)NCCO[C@H]1O[C@H](CO[C@H]2O[C@H](CO)[C@@H](O)[C@H](O)[C@@H]2O)[C@@H](O)[C@H](O[C@H]2O[C@H](CO)[C@@H](O)[C@H](O)[C@@H]2O)[C@@H]1O)NC(=O)[C@H](CCCCNC(=O)CCCCCNC(=O)CN(CC(=O)NCCO[C@H]1O[C@H](CO[C@H]2O[C@H](CO)[C@@H](O)[C@H](O)[C@@H]2O)[C@@H](O)[C@H](O[C@H]2O[C@H](CO)[C@@H](O)[C@H](O)[C@@H]2O)[C@@H]1O)CC(=O)NCCO[C@H]1O[C@H](CO[C@H]2O[C@H](CO)[C@@H](O)[C@H](O)[C@@H]2O)[C@@H](O)[C@H](O[C@H]2O[C@H](CO)[C@@H](O)[C@H](O)[C@@H]2O)[C@@H]1O)NC(=O)CCCCCNC(=O)CN(CC(=O)NCCO[C@H]1O[C@H](CO[C@H]2O[C@H](CO)[C@@H](O)[C@H](O)[C@@H]2O)[C@@H](O)[C@H](O[C@H]2O[C@H](CO)[C@@H](O)[C@H](O)[C@@H]2O)[C@@H]1O)CC(=O)NCCO[C@H]1O[C@H](CO[C@H]2O[C@H](CO)[C@@H](O)[C@H](O)[C@@H]2O)[C@@H](O)[C@H](O[C@H]2O[C@H](CO)[C@@H](O)[C@H](O)[C@@H]2O)[C@@H]1O [IOC-42]	1.72	1.95	1.99		
CC(=O)[C@H](CCCCN)NC(=O)CCCCCNC(=O)[C@H](CCCCNC(=O)CCCCC(=O)NCCCC[C@@H](C(=O)NCCO[C@@H]1O[C@@H](C)[C@@H](O)[C@@H](O)[C@@H]1O)N(CC(=O)NCCO[C@@H]1O[C@@H](C)[C@@H](O)[C@@H](O)[C@@H]1O)CC(=O)NCCO[C@@H]1O[C@@H](C)[C@@H](O)[C@@H](O)[C@@H]1O)NC(=O)[C@H](CCCCNC(=O)CCCCC(=O)NCCCC[C@@H](C(=O)NCCO[C@@H]1O[C@@H](C)[C@@H](O)[C@@H](O)[C@@H]1O)N(CC(=O)NCCO[C@@H]1O[C@@H](C)[C@@H](O)[C@@H](O)[C@@H]1O)CC(=O)NCCO[C@@H]1O[C@@H](C)[C@@H](O)[C@@H](O)[C@@H]1O)NC(=O)CCCCC(=O)NCCCC[C@@H](C(=O)NCCO[C@@H]1O[C@@H](C)[C@@H](O)[C@@H](O)[C@@H]1O)N(CC(=O)NCCO[C@@H]1O[C@@H](C)[C@@H](O)[C@@H](O)[C@@H]1O)CC(=O)NCCO[C@@H]1O[C@@H](C)[C@@H](O)[C@@H](O)[C@@H]1O [IOC-58]	1.17		0.87		
CC(=O)[C@H](CCCCN)NC(=O)CCCCC(=O)NCC(=O)N[C@@H](CCC(=O)N[C@@H](CCC(=O)NCCCCCC(=O)N(CC(=O)NCCO[C@H]1O[C@H](CO)[C@@H](O)[C@H](O)[C@@H]1O)CC(=O)NCCO[C@@H]1O[C@@H](C)[C@@H](O)[C@@H](O)[C@@H]1O)C(=O)NCCCCCC(=O)N(CC(=O)NCCO[C@H]1O[C@H](CO)[C@@H](O)[C@H](O)[C@@H]1O)CC(=O)NCCO[C@@H]1O[C@@H](C)[C@@H](O)[C@@H](O)[C@@H]1O)C(=O)NCCCCCC(=O)N(CC(=O)NCCO[C@H]1O[C@H](CO)[C@@H](O)[C@H](O)[C@@H]1O)CC(=O)NCCO[C@@H]1O[C@@H](C)[C@@H](O)[C@@H](O)[C@@H]1O [IOC-50]	0.84		13.1		
CC(=O)[C@H](CCCCN)NC(=O)[C@H](CCCCNC(=O)CCCCC(=O)N(CCOC1O[C@H](CO)[C@@H](O)[C@H](O)[C@@H]1O)CCOC1O[C@H](CO)[C@@H](O)[C@H](O)[C@@H]1O)NC(=O)[C@H](CCCNC(=O)CCCCC(=O)N(CCOC1O[C@H](CO)[C@@H](O)[C@H](O)[C@@H]1O)CCOC1O[C@H](CO)[C@@H](O)[C@H](O)[C@@H]1O)NC(=O)CCCCC(=O)N(CCOC1O[C@H](CO)[C@@H](O)[C@H](O)[C@@H]1O)CCOC1O[C@H](CO)[C@@H](O)[C@H](O)[C@@H]1O (stereo partly drawn) [IOC-44]				8.4	31.3
